Results: PubChem BioAssay AID1963834 (Molecular Pharmacology Branch, DTP, NCI, 2024)

Tested on: 873145-292-R-J1-PDC complex spheroid viability
Assay: Anticancer human tumor 873145-292-R-J1-PDC patient-derived renal clear cell carcinoma cell line growth inhibition [POLQ]
Conditions: for IC50: curve of first compound; for viability, T/C: stronger effect = lower value
Procedure, shortened: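 Growth inhibition in 3D: complex spheroids (tumor PDC, HUVEC, MSC) treated with POLQ inhibitor combinations; where Cmax unknown, highest tested concentration 10 microM, except SN-38 at 1 microM.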

[1] = second compound 0.0316 µM, first compound 0.0316 µM
[2] = second compound 0.0316 µM, first compound 0.1 µM
[3] = second compound 0.0316 µM, first compound 0.316 µM
[4] = second compound 0.0316 µM, first compound 1 µM
[5] = second compound 0.0316 µM, first compound 3.16 µM
[6] = second compound 0.0316 µM, first compound 10 µM
[7] = second compound 0.1 µM, first compound 0.0316 µM
[8] = second compound 0.1 µM, first compound 0.1 µM
[9] = second compound 0.1 µM, first compound 0.316 µM
[10] = second compound 0.1 µM, first compound 1 µM
[11] = second compound 0.1 µM, first compound 3.16 µM
[12] = second compound 0.1 µM, first compound 10 µM
[13] = second compound 0.316 µM, first compound 0.0316 µM
[14] = second compound 0.316 µM, first compound 0.1 µM
[15] = second compound 0.316 µM, first compound 0.316 µM
[16] = second compound 0.316 µM, first compound 1 µM
[17] = second compound 0.316 µM, first compound 3.16 µM
[18] = second compound 0.316 µM, first compound 10 µM
[19] = second compound 1 µM, first compound 0.0316 µM
[20] = second compound 1 µM, first compound 0.1 µM
[21] = second compound 1 µM, first compound 0.316 µM
[22] = second compound 1 µM, first compound 1 µM
[23] = second compound 1 µM, first compound 3.16 µM
[24] = second compound 1 µM, first compound 10 µM
[25] = second compound 3.16 µM, first compound 0.0316 µM
[26] = second compound 3.16 µM, first compound 0.1 µM
[27] = second compound 3.16 µM, first compound 0.316 µM
[28] = second compound 3.16 µM, first compound 1 µM
[29] = second compound 3.16 µM, first compound 3.16 µM
[30] = second compound 3.16 µM, first compound 10 µM
[31] = second compound 10 µM, first compound 0.0316 µM
[32] = second compound 10 µM, first compound 0.1 µM
[33] = second compound 10 µM, first compound 0.316 µM
[34] = second compound 10 µM, first compound 1 µM
[35] = second compound 10 µM, first compound 3.16 µM
[36] = second compound 10 µM, first compound 10 µM
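Note: spheroids exposed to compounds for 7 days before viability readout.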
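Throughout, for viability, T/C: luminescence signal used as surrogate for viable cell content; 100% = DMSO vehicle control viability.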

CCc1cc2c(N3CCc4c(cc(Cn5ccnc5)cc4-c4cn(C)nc4C(F)(F)F)C3=O)cc(C)nc2c(OC)n1 + COC1C(OC(N)=O)C(O)C(Oc2ccc3c(O)c(NC(=O)c4ccc(O)c(CC=C(C)C)c4)c(=O)oc3c2C)OC1(C)C
IC50 (second compound 0.0316 µM): > 10 µM | IC50 (second compound 0.1 µM): > 10 µM | IC50 (second compound 0.316 µM): > 10 µM | IC50 (second compound 1 µM): > 10 µM | IC50 (second compound 3.16 µM): > 10 µM | IC50 (second compound 10 µM): > 10 µM | viability, T/C [1]: 96% | viability, T/C [2]: 98.1% | viability, T/C [3]: 93.6% | viability, T/C [4]: 99.2% | viability, T/C [5]: 86.6% | viability, T/C [6]: 83% | viability, T/C [7]: 92.5% | viability, T/C [8]: 105% | viability, T/C [9]: 96.4% | viability, T/C [10]: 88.5% | viability, T/C [11]: 90.4% | viability, T/C [12]: 79.8% | viability, T/C [13]: 113% | viability, T/C [14]: 97.5% | viability, T/C [15]: 94.3% | viability, T/C [16]: 90.8% | viability, T/C [17]: 89.2% | viability, T/C [18]: 83.3% | viability, T/C [19]: 99.4% | viability, T/C [20]: 106% | viability, T/C [21]: 78.8% | viability, T/C [22]: 84.7% | viability, T/C [23]: 83.6% | viability, T/C [24]: 84.2% | viability, T/C [25]: 99.6% | viability, T/C [26]: 93% | viability, T/C [27]: 99.8% | viability, T/C [28]: 82.7% | viability, T/C [29]: 77.5% | viability, T/C [30]: 74% | viability, T/C [31]: 88.1% | viability, T/C [32]: 82.8% | viability, T/C [33]: 101% | viability, T/C [34]: 77.7% | viability, T/C [35]: 92.6% | viability, T/C [36]: 96.2%

CCc1cc2c(N3CCc4c(cc(Cn5ccnc5)cc4-c4cn(C)nc4C(F)(F)F)C3=O)ccnc2c(OC)n1 + COC1C(OC(N)=O)C(O)C(Oc2ccc3c(O)c(NC(=O)c4ccc(O)c(CC=C(C)C)c4)c(=O)oc3c2C)OC1(C)C
IC50 (second compound 0.0316 µM): > 10 µM | IC50 (second compound 0.1 µM): > 10 µM | IC50 (second compound 0.316 µM): > 10 µM | IC50 (second compound 1 µM): > 10 µM | IC50 (second compound 3.16 µM): > 10 µM | IC50 (second compound 10 µM): > 10 µM | viability, T/C [1]: 97.1% | viability, T/C [2]: 96.5% | viability, T/C [3]: 98.2% | viability, T/C [4]: 97.9% | viability, T/C [5]: 86.8% | viability, T/C [6]: 79.6% | viability, T/C [7]: 106% | viability, T/C [8]: 101% | viability, T/C [9]: 87.7% | viability, T/C [10]: 81.5% | viability, T/C [11]: 82% | viability, T/C [12]: 85% | viability, T/C [13]: 107% | viability, T/C [14]: 90.1% | viability, T/C [15]: 86.4% | viability, T/C [16]: 98.7% | viability, T/C [17]: 96.6% | viability, T/C [18]: 83.2% | viability, T/C [19]: 94.1% | viability, T/C [20]: 92.4% | viability, T/C [21]: 86.7% | viability, T/C [22]: 104% | viability, T/C [23]: 84.3% | viability, T/C [24]: 74.4% | viability, T/C [25]: 103% | viability, T/C [26]: 98.7% | viability, T/C [27]: 96.5% | viability, T/C [28]: 91.8% | viability, T/C [29]: 82.4% | viability, T/C [30]: 91.4% | viability, T/C [31]: 88.4% | viability, T/C [32]: 97.5% | viability, T/C [33]: 87% | viability, T/C [34]: 86.2% | viability, T/C [35]: 85.1% | viability, T/C [36]: 78.2%

CC1COCCN1c1cc(C2(O)CC3CCC(C2)O3)c2cnn(-c3ccn[nH]3)c2n1 (stereo unspecified) + Cc1cccc(N(C)C(=O)C2C(O)CCN2c2nc(C)cc(C(F)(F)F)c2C#N)c1
IC50 (second compound 0.0316 µM): 0.478 µM | IC50 (second compound 0.1 µM): 0.61 µM | IC50 (second compound 0.316 µM): 0.405 µM | IC50 (second compound 1 µM): 0.511 µM | IC50 (second compound 3.16 µM): 0.378 µM | IC50 (second compound 10 µM): 0.306 µM | viability, T/C [1]: 84.4% | viability, T/C [2]: 67.5% | viability, T/C [3]: 54% | viability, T/C [4]: 44.3% | viability, T/C [5]: 37.2% | viability, T/C [6]: 38% | viability, T/C [7]: 93.5% | viability, T/C [8]: 76.4% | viability, T/C [9]: 57.1% | viability, T/C [10]: 43.2% | viability, T/C [11]: 39.5% | viability, T/C [12]: 32% | viability, T/C [13]: 94.5% | viability, T/C [14]: 82.5% | viability, T/C [15]: 52.5% | viability, T/C [16]: 40.4% | viability, T/C [17]: 40.3% | viability, T/C [18]: 35.9% | viability, T/C [19]: 84.8% | viability, T/C [20]: 71.6% | viability, T/C [21]: 54% | viability, T/C [22]: 44.1% | viability, T/C [23]: 42.1% | viability, T/C [24]: 39.8% | viability, T/C [25]: 90.1% | viability, T/C [26]: 63.1% | viability, T/C [27]: 55.6% | viability, T/C [28]: 41.3% | viability, T/C [29]: 36.6% | viability, T/C [30]: 35.6% | viability, T/C [31]: 86.2% | viability, T/C [32]: 68.8% | viability, T/C [33]: 49% | viability, T/C [34]: 38.4% | viability, T/C [35]: 39.5% | viability, T/C [36]: 32%
